Read-outs that look alike come from different tables or passages of the source.
Key:
[1] = system: pCREB in gated human CD4+ cells; assay: Intracellular pCREB by flow cytometry in NECA-treated PBMCs, gated CD4+ T cells; type: cell-based; settings: read-out: Activity (reduction of pCREB, restoration to normal physiological levels)
Method: (§1) Human peripheral blood mononuclear cells (PBMCs) were isolated using density centrifugation from fresh whole blood of healthy human blood donors. Cells were cryopreserved and thawed and rested for several hours in complete cell culture media containing human albumin and antibiotics (penicillin and streptomycin; 100 units or mg per ml respectively). […] DMSO was used as the storage diluent for concentrated A2AR antagonists. NECA and DMSO controls (% v/v) were also tested in parallel to the therapeutic candidates. After the indicated incubation time with NECA, cells were either stained to determine their intracellular level of pCREB, or activated with Dynabeads overnight before staining for intracellular cytokines, as described below.
(§2) PBMCs that were cultured with A2AR antagonists in the presence of NECA and were subsequently fixed and permeabilized using ice cold paraformaldehyde and methanol-based kit reagents (ThermoFisher and Miltenyi, respectively). […] Stained cells were acquired using a Fortessa flow cytometer (BD). Gating of the desired cell subsets was performed using FSC-A vs FSC—H to remove doublet cells, FSC vs SSC parameters to identify cells with lymphocyte-like morphology, followed by CD3^+ T cell and CD4^+ or CD8^+ sub-gating. The fold change in mean fluorescence intensity (MFI) of intracellular pCREB in gated CD4 or CD8^+ T cells was calculated using NECA-only conditions, and divided by NECA and A2AR antagonist-cultured cells from the same donor. The overall activity of the tested compounds was calculated using the average of at least 3 donors.
(§3) Compounds of the invention were tested in physiological conditions using healthy human peripheral blood mononuclear cells as well as in the presence of human albumin to increase the physiological relevance of the assay. […] The activity scale represented is the average for at least 3 donors, compared to the NECA-only control.

[2] = system: pCREB in gated human CD8+ cells; assay: Intracellular pCREB by flow cytometry in NECA-treated PBMCs, gated CD8+ T cells; type: cell-based; settings: read-out: Activity (reduction of pCREB, restoration to normal physiological levels)
Method: as §1, §2, §3

A2AR = A2AR (Homo sapiens, UniProt P29274); assay: cAMP biosensor antagonist potency assay in CHO cells expressing recombinant A2AR
A2AR, sequence (P29274 whole entry): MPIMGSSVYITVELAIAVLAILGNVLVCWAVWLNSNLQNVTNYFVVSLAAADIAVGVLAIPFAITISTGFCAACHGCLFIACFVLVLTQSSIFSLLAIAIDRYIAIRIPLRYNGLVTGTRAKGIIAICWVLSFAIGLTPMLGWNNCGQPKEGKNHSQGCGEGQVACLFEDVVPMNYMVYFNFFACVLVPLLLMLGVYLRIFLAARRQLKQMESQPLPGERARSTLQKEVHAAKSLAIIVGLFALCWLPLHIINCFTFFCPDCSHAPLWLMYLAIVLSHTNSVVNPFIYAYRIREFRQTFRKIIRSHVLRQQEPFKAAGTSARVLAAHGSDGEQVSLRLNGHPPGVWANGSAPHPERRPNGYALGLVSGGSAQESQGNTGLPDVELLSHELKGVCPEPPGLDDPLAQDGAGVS
Method: Chinese Hamster Ovary (CHO) cells containing an in-house cAMP-based biosensor, described below, and expressing recombinant A2AR were used to characterize the potency of A2AR antagonists according to the invention. The biosensor contains a cAMP binding domain allowing the measurement of Gs and Gi-coupled receptors activation. Cells were treated in a 384 well plate with the indicated concentrations of A2AR antagonists, followed by the addition of an A2AR agonist, adenosine. cAMP levels were measured on a luminescent/fluorescent plate reader.
CHO cells expressing A2AR and the biosensor were seeded in a black 384-well plate (Nunc) and grown at 37° C. and 5% CO2 overnight. […] The cAMP biosensor allowed real-time monitoring of signals using an FDSS/μCELL (Hamamatsu). The assay was conducted in 1× Hanks Balanced Salt Solution (HBSS). The total volume of the reaction was 80 μl (45 μl of cells, 15 μl of antagonist and 20 μl of agonist). Data analysis was performed using GraphPad Prism.

[3] = compound at 1 μM, 5 µM NECA, gated human CD4+ cells, average of at least 3 donors vs NECA-only control
[4] = compound at 1 μM, 5 µM NECA, gated human CD8+ cells, average of at least 3 donors vs NECA-only control

What does the source list for `Cc1ccc(-c2nc(N)nc3c2nnn3Cc2cccc(CO[C@H]3CCOC3)n2)o1` [Ciforadenant, 7-(5-methylfuran-2-yl)-3-[[6-[[(3S)-oxolan-3-yl]oxymethyl]pyridin-2-yl]methyl]triazolo[4,5-d]pyrimidin-5-amine, reference compound]?
inhibition at 1 µM [1, 3]: 70 to 90%; inhibition at 1 µM [2, 4]: 70 to 90%

How did the inhibition at 1 µM ([1]; Homo sapiens) turn out when `N#Cc1c(N)nc(N2CCCCC2)c(C#N)c1-c1cccc(-c2ccccc2)c1` [Compound 3, 4-([1,1′-biphenyl]-3-yl)-2-amino-6-(piperidin-1-yl)pyridine-3,5-dicarbonitrile] was run?
Its inhibition at 1 µM is greater than 90%.

What about the inhibition at 1 µM ([2]; Homo sapiens) of the same compound?
The inhibition at 1 µM was greater than 90%.

Which results are given for `N#Cc1c(N)nc(N2CCCCC2)c(C#N)c1-c1cccc(-c2ccccc2F)c1` [Compound 4, 2-amino-4-(2′-fluoro-[1,1′-biphenyl]-3-yl)-6-(piperidin-1-yl)pyridine-3,5-dicarbonitrile]?
inhibition at 1 µM ([1]; Homo sapiens): > 90%; inhibition at 1 µM ([2]; Homo sapiens): > 90%

`N#Cc1c(N)nc(N2CCOCC2)c(C#N)c1-c1cccc(-c2ccccc2)c1` [Compound 18, 4-([1,1′-biphenyl]-3-yl)-2-amino-6-morpholinopyridine-3,5-dicarbonitrile] was tested. Which IC50 (A2AR) did it give?
The IC50 was 200 to 1000 nM.

How did the IC50 (A2AR) turn out when `COc1nc(N)c(C#N)c(-c2cccc(-c3ccccc3)c2)c1C#N` [Compound 21, 4-([1,1′-biphenyl]-3-yl)-2-amino-6-methoxypyridine-3,5-dicarbonitrile] was run?
Its IC50 is 200 to 1000 nM.

`CCOc1nc(N)c(C#N)c(-c2cccc(-c3ccccc3)c2)c1C#N` [Compound 22, 4-([1,1′-biphenyl]-3-yl)-2-amino-6-ethoxypyridine-3,5-dicarbonitrile] was tested. Which IC50 (A2AR) did it give?
The IC50 was less than 200 nM.

With `N#Cc1c(N)nc(N2CCCCC2)c(C#N)c1-c1cccc(-c2ncccc2F)c1` [Compound 24, 2-amino-4-(3-(3-fluoropyridin-2-yl)phenyl)-6-(piperidin-1-yl)pyridine-3,5-dicarbonitrile] as the compound, how does the inhibition at 1 µM [1, 3] read?
Its inhibition at 1 µM is 70 to 90%.

What about the inhibition at 1 µM [2, 4] of the same compound?
Its inhibition at 1 µM is 40 to 70%.

What about the IC50 (A2AR) of the same compound?
The IC50 was less than 200 nM.

With `N#Cc1c(N)nc(N2CCCCC2)c(C#N)c1-c1cccc(-c2cccc(F)n2)c1` [Compound 25, 2-amino-4-(3-(6-fluoropyridin-2-yl)phenyl)-6-(piperidin-1-yl)pyridine-3,5-dicarbonitrile] as the compound, how does the IC50 (A2AR) read?
Its IC50 is less than 200 nM.

How did the IC50 (A2AR) turn out when `N#Cc1c(N)nc(N2CCCCC2)c(C#N)c1-c1cccc(-c2cc(F)ccn2)c1` [Compound 26, 2-amino-4-(3-(4-fluoropyridin-2-yl)phenyl)-6-(piperidin-1-yl)pyridine-3,5-dicarbonitrile] was run?
The IC50 was 200 to 1000 nM.

`N#Cc1c(N)nc(N2CCCCC2)c(C#N)c1-c1cccc(-c2cncc(F)c2)c1` [Compound 27, 2-amino-4-(3-(5-fluoropyridin-3-yl)phenyl)-6-(piperidin-1-yl)pyridine-3,5-dicarbonitrile] was tested. Which IC50 (A2AR) did it give?
Its IC50 is 200 to 1000 nM.

`N#Cc1c(N)nc(N2CCCCC2)c(C#N)c1-c1cccc(-c2cccnc2F)c1` [Compound 28, 2-amino-4-(3-(2-fluoropyridin-3-yl)phenyl)-6-(piperidin-1-yl)pyridine-3,5-dicarbonitrile] was tested. Which inhibition at 1 µM [1, 3] did it give?
Its inhibition at 1 µM is greater than 90%.

And the inhibition at 1 µM [2, 4]?
Its inhibition at 1 µM is 70 to 90%.

What about the IC50 (A2AR) of the same compound?
The IC50 was less than 200 nM.

`N#Cc1c(N)nc(N2CCCCC2)c(C#N)c1-c1cc(-c2cccnc2)ccc1F` [Compound 29, 2-amino-4-(2-fluoro-5-(pyridin-3-yl)phenyl)-6-(piperidin-1-yl)pyridine-3,5-dicarbonitrile] was tested. Which IC50 (A2AR) did it give?
Its IC50 is less than 200 nM.

What does the source list for `N#Cc1c(N)nc(N2CCCCC2)c(C#N)c1-c1cccc(-c2cccnc2)c1F` [Compound 30, 2-amino-4-(2-fluoro-3-(pyridin-3-yl)phenyl)-6-(piperidin-1-yl)pyridine-3,5-dicarbonitrile]?
inhibition at 1 µM [1, 3]: 40 to 70%; inhibition at 1 µM [2, 4]: 0 to 40%; IC50 (A2AR): < 200 nM

How did the inhibition at 1 µM [1, 3] turn out when `N#Cc1c(N)nc(N2CCCCC2)c(C#N)c1-c1cc(F)cc(-c2cccnc2)c1` [Compound 31, 2-amino-4-(3-fluoro-5-(pyridin-3-yl)phenyl)-6-(piperidin-1-yl)pyridine-3,5-dicarbonitrile] was run?
Its inhibition at 1 µM is 40 to 70%.

And the inhibition at 1 µM [2, 4]?
Its inhibition at 1 µM is 0 to 40%.

What about the IC50 (A2AR) of the same compound?
The IC50 was less than 200 nM.

`Cc1c(C#N)cccc1-c1cc(-c2cn(Cc3cccc(C(C)(C)O)n3)nn2)nc(N)n1` [Etrumadenant, 3-[2-Amino-6-[1-[[6-(2-hydroxypropan-2-yl)pyridin-2-yl]methyl]triazol-4-yl]pyrimidin-4-yl]-2-methylbenzonitrile, reference compound] was tested. Which inhibition at 1 µM [1, 3] did it give?
Its inhibition at 1 µM is greater than 90%.

What about the inhibition at 1 µM [2, 4] of the same compound?
Its inhibition at 1 µM is greater than 90%.

Which results are given for `Cc1cc(-c2nnc(N)nc2-c2ccc(F)cc2)cc(Cl)n1` [Imaradenant, 6-(2-chloro-6-methylpyridin-4-yl)-5-(4-fluorophenyl)-1,2,4-triazin-3-amine, reference compound]?
inhibition at 1 µM [1, 3]: 40 to 70%; inhibition at 1 µM [2, 4]: 40 to 70%

`COCCOc1ccc(N2CCN(CCn3ncc4c3nc(N)n3nc(-c5ccco5)nc43)CC2)cc1` [Preladenant, 4-(furan-2-yl)-10-[2-[4-[4-(2-methoxyethoxy)phenyl]piperazin-1-yl]ethyl]-3,5,6,8,10,11-hexazatricyclo[7.3.0.0^2,6]dodeca-1(9),2,4,7,11-pentaen-7-amine, reference compound] was tested. Which inhibition at 1 µM [1, 3] did it give?
Its inhibition at 1 µM is 70 to 90%.

And the inhibition at 1 µM [2, 4]?
Its inhibition at 1 µM is 70 to 90%.

Which results are given for `Nc1nc(-n2cccn2)nc(-n2cccn2)c1Br` [Taminadenant, 5-bromo-2,6-di(pyrazol-1-yl)pyrimidin-4-amine, reference compound]?
inhibition at 1 µM [1, 3]: 0 to 40%; inhibition at 1 µM [2, 4]: 0 to 40%

— patent publication US12692255B2, “Adenosine 2A receptor modulators for use in the treatment of cancer” (UNIVERSITE DE GENEVE, priority 2022, dated 2026)
